Source: paper PMC12591170, “Glabridin‐Gold(I) Complex as a Novel Immunomodulatory Agent Targeting TrxR and MAPK Pathways for Synergistic Enhancement of Antitumor Immunity” (Advanced Science, 2025)

What was measured:
HepG2 cells = assay: MTT antiproliferative assay, HepG2; assay type: cell-based, human; conditions: 72 h MTT assay, Mean ± SD
Procedure: (§1) All cells were incubated at 37 °C by DMEM complete medium (containing 1% penicillin−streptomycin and 12% FBS) in 5% CO2 incubator. 2–5 × 10^3 cells were cultured in 96‐well plates and each well contained 100 µL complete medium. OXA was dissolved in water, and all other complexes were dissolved in DMF. After cells adhered in the wells, different concentrations of complexes were diluted in 100 µL complete medium and added in the wells. The final volume in the each well was 200 µL and the content of DMF was maximum 0.5%. After 72 h incubation, the antiproliferative activity was tested by MTT assay.

[1] = test system: MAPK pathway (phosphorylated MEK1/2 and ERK1/2); assay: Western blot of MAPK pathway in HepG2; assay type: cell-based, human; conditions: HepG2, 24 h
Procedure: (§2) HepG2 cells were incubated in 6 cm culture dishes and treated with different complexes. The treated cells were lysed with lysis buffer (RIPA:PMSF:phosphatase inhibitor:protease inhibitor = 100:1:1:1). The lysed cells were further broken by sonication, and proteins were isolated by centrifugation. The protein concentrations were detected by BCA assay. 10% SDS PAGE gel was usually applied to separate the different kDa of proteins, and more than 200 kDa of proteins were separated using 8% SDS PAGE gel. After seperation, proteins were transferred onto polyvinylidene difluoride (PVDF) membranes. The target proteins were labeled by various specific primary antibodies at 4 °C overnight. Then, the membranes were treated with anti‐rabbit or anti‐mouse secondary antibody for 2 h. Tris buffered saline with tween 20 (TBST) was applied to wash the membranes after each operation above. The target proteins’ bands were detected by the enhanced chemiluminescence (ECL) procedure.

PD-L1 [2] = assay: PD-L1 expression in HepG2 (western blot, immunofluorescence, flow cytometry); assay type: cell-based, human; conditions: HepG2, 24 h
Procedure: as §2
5 × 10^4 HepG2 cells were treated with complexes in 24‐well plates for 24 h. Subsequently, cells were fixed with 4% paraformaldehyde. Various specific antibodies were added for incubation at 4 °C overnight after cells were permeabilized with Triton X‐100 (except for membrane proteins) and blocked with BSA. Then, the cells were incubated with fluorescently‐labeled secondary antibodies in darkness for 2 h. After that, DAPI was added to stain nuclear in darkness. PBS was applied for washing after each operation above (Tris buffered saline (TBS) was applied for washing if phosphorylated protein was analyzed). The cell images were captured by the fluorescence microscopy.
4 × 10^5 HepG2 cells were incubated in 6‐well plates, and complexes were added in the wells. The cells were collected after incubation, and the treated cells were labeled with probes or fluorescently‐labeled antibodies. A flow cytometer was applied to analyze the labeled cells.

Hepa1-6 tumors = assay: In vivo antitumor assay, Hepa1-6 tumors; parameters: species or system C57BL/6 mice; conditions: after 13 days; 6d and OXA 5 mg kg^−1, GLA 10 mg kg^−1, i.p. every two days
[3] = test system: MAPK pathway (phosphorylated MEK1/2 and ERK1/2); assay: In vivo MAPK pathway in tumor tissue; parameters: species or system C57BL/6 mice; conditions: western blot, day 13
PD-L1 [4] = assay: In vivo PD-L1 expression in tumor tissue; parameters: species or system C57BL/6 mice; conditions: western blot, 13 days of treatment
[5] = test system: immune cells in Hepa1-6 tumor and spleen tissue; assay: In vivo immune cell and marker analysis (flow cytometry, immunofluorescence, immunohistochemistry); parameters: species or system C57BL/6 mice; conditions: for DC maturation in spleen and tumor tissues / macrophage polarization in tumor: flow cytometry and immunofluorescence; for T lymphocyte infiltration in tumor: flow cytometry and immunohistochemistry; for MDSC infiltration in tumor / Treg infiltration in tumor (Foxp3): vs model group, 13 days
Hepa1-6 cells = assay: MTT antiproliferative assay, Hepa1-6; assay type: cell-based; conditions: Mus musculus, Hepa1-6; 72 h MTT assay, Mean ± SD
Procedure: as §1

293T cells = assay: MTT assay, normal kidney cell line 293T; assay type: cell-based; conditions: Homo sapiens, HEK-293T; 72 h MTT assay, Mean ± SD
Procedure: as §1

phosphorylated Akt = assay: Western blot of phosphorylated Akt in HepG2; assay type: cell-based, human; conditions: HepG2, 24 h; GLA at 8 µM
Procedure: as §2

[6] = In vivo tolerability (body weight, survival, organ H&E)
Procedure: All mice were 6–8 weeks old males and procured from Hangzhou Medical College, located in Hangzhou, China. […] 2 × 10^6 Hepa1‐6 cells in 100 µL DMEM were subcutaneously seeded in underarms of C57BL/6 mice. […] Meanwhile, the mice weights and tumor volume were recorded, and the calculation formula of tumor volume was Volume = Width^2 × Length/2. After 13 days, all mice were sacrificed for collection of tumors, hearts, livers, spleens, lungs and kidneys. Collagenase IV (1 mg mL^−1) and DNase I (1 µg mL^−1) were applied to digest a part of the tumor tissue into cell suspension, and lysis buffer was used to remove red blood cells. The prepared cells above were stained with antibodies (anti‐CD3e‐FITC, and anti‐CD8a‐PE; anti‐CD11c‐APC, anti‐CD80‐PE, and anti‐CD86‐FITC; anti‐CD45‐Percp, anti‐CD11b‐APC, and anti‐Ly‐6G/Ly‐6C(Gr‐1)‐FITC; anti‐CD11b‐APC, anti‐CD206‐PE, and CD86‐FITC). CD3^+CD8^+ T cells, CD80^+CD86^+ DCs, CD11b^+Gr‐1^+ MDSCs, CD206^−CD86^+ M1‐type macrophages and CD206^+CD86^− M2‐type macrophages were analyzed by flow cytometry. Then, another part of tumor tissues were fixed with 4% paraformaldehyde, embedded in paraffin, cut into slices and stained with antibodies for immunofluorescence and immunohistochemistry analysis. H&E stain assays were applied for all tissue samples.

[7] = parameters: method as in PMID 30146723; conditions: antitumor activity; cited from earlier work
[8] = Stability analysis by 1H NMR; assay type: physicochemical
Procedure: 5 mM of complex 6d was incubated with DMSO‐d6 or the mixed solution (DMSO‐d6 /D2O = 9:1) or the same mixed solution with 5 mM of GSH for different times (0 – 72 h), and the ^1H NMR spectra were acquired. The stability of AF was determined by the same method.

HIF-1α = assay: Western blot of HIF-1α in HepG2; assay type: cell-based, human; conditions: HepG2, 24 h
Procedure: as §2

[9] = Metabolic stability in whole blood; conditions: mouse

Row | IC50 (HepG2 cells; Homo sapiens, HepG2) | Structure (SMILES) | IC50 (HepG2 cells) | PD-L1 expression (western blot) (PD-L1 [2]) | tumor growth vs model group (Hepa1-6 tumors) | MAPK pathway activation (phosphorylation of MEK1/2 and ERK1/2) in tumor tissue [3] | DC maturation in spleen and tumor tissues [5] | macrophage polarization in tumor [5] | T lymphocyte infiltration in tumor [5] | Arg-1 expression in tumor tissue ([5]; immunofluorescence) | CRT exposure in tumor tissue ([5]; immunofluorescence) | MDSC infiltration in tumor [5] | Treg infiltration in tumor (Foxp3) [5] | IC50 (Hepa1-6 cells) | IC50 (293T cells) | Akt phosphorylation (western blot) (phosphorylated Akt) | also measured
1 |  | O=C1[O][Pt]2([NH][C@@H]3CCCC[C@H]3[NH]2)[O]C1=O [OXA, oxaliplatin] | 4.08 ± 0.97 µM | did not affect | significant tumor growth inhibition | promoted the phosphorylation | induced DC maturation | promoted M2‐type polarization | promoted T lymphocyte infiltration | promoted the expression | promoted CRT exposure | higher level of MDSC infiltration | higher number of infiltrated Tregs |  |  |  | phosphorylation of MEK1/2 and ERK1/2 (western blot) [1]: no effect; PD-L1 expression in tumor tissue (PD-L1 [4]): upregulated; GzmB expression in tumor tissue ([5]; immunofluorescence, OXA vs model group, 6d vs OXA group): did not increase obviously
2 | 39.5 ± 4.68 µM | CC1(C)C=Cc2c(ccc3c2OC[C@@H](c2ccc(O)cc2O)C3)O1 [GLA, glabridin] |  | did not exhibit this effect | did not show an obvious effect on tumor growth | significantly inhibited | induced DC maturation | significantly promoted M1‐type macrophage polarization | did not enhance T lymphocyte infiltration | downregulation | did not induce CRT exposure | reducing the infiltration | reducing the infiltration | 37.6 ± 1.73 µM | 43.4 ± 4.47 µM | did not significantly affect Akt phosphorylation | effect on mice body weight ([6]; 6d and OXA 5 mg kg^−1, GLA 10 mg kg^−1, i.p. every two days, OXA after nine days): no significant effect; organ tissue damage (H&E staining) ([6]; heart, liver, spleen, lung, kidney, day 13): did not cause noticeable damage to organ tissues; suggested minimum effective dose [7]: 10 mg/kg
3 |  | CC(=O)OC[C@H]1O[C@@H]([S-])[C@H](OC(C)=O)[C@@H](OC(C)=O)[C@@H]1OC(C)=O.CCP(CC)CC.[Au+] [AF, auranofin, reference compound] | 3.54 ± 0.34 µM | upregulation |  |  |  |  |  |  |  |  |  |  |  | inhibited Akt phosphorylation | stability by 1H NMR [8]: remained stable; time after which 1H NMR spectra began to change / showed new peaks ([8]; 5 mM complex, DMSO-d6/D2O 9:1 containing GSH (5 mM)): 2 h; ERK1/2 phosphorylation (western blot, Figure S49) [1]: significantly enhancing ERK1/2 phosphorylation; HIF-1α expression (western blot) (HIF-1α): promoted
4 | > 20 µM | CC1(C)C=Cc2c(ccc3c2OC[C@@H](c2ccc(OCCCCCBr)cc2OCCCCCBr)C3)O1 [3b] |  |  |  |  |  |  |  |  |  |  |  | > 20 µM | > 20 µM |  | 
5 |  | CC(C)[N+](C)(CCOC(=O)C1c2ccccc2Oc2ccccc21)C(C)C [Propantheline bromide] |  |  |  |  |  |  |  |  |  |  |  |  |  |  | -k [9]: 0.0216; half-life [9]: 32.1 min; remaining at 0 h [9]: 100%; remaining at 5 min [9]: 88.5%; remaining at 0.25 h [9]: 66%; remaining at 0.5 h [9]: 47.5%; remaining at 1 h [9]: 21.8%; remaining at 2 h [9]: 7.63%
